From paper PMC11822212, “High-throughput screening identifies Aurora kinase B as a critical therapeutic target for Merkel cell carcinoma” (Nature Communications, 2025)

Tests used:
Assay type in all cases: cell-based, human
[1] = tested on: MKL-1 cells (VP-MCC); test: qHTS cell viability (CellTiter-Glo, 72 h; primary and follow-up small molecule screen); details: for Percent viability: MKL1, 72h
[2] = tested on: MCC13 cells (VN-MCC); test: as above; details: for Percent viability: MCC13, 72h
[3] = tested on: UISO cells (VN-MCC); test: as above; details: for Percent viability: UISO, 72h
[4] = tested on: MKL-2 cells (VP-MCC); test: as above; details: for Percent viability: MKL2, 72h
[5] = tested on: VP-MCC cell lines (WAGA, MKL-1, MKL-2); test: qHTS cell viability, VP-MCC cell lines as a group (mean AUC, VP.MCC.avg); details: re-tested in triplicate, follow-up screen
[6] = tested on: WAGA cells (VP-MCC); test: qHTS cell viability (CellTiter-Glo, 72 h; primary and follow-up small molecule screen); details: for Percent viability: WAGA, 72h
[7] = tested on: MCC26 cells (VN-MCC); test: as above; details: for Percent viability: MCC26, 72h

O=C(Nc1cccc(Cl)c1)Nc1ncc(CCNc2ncnc3ccsc23)s1 [SNS-314, reference compound]
Percent viability ([1]; Log (M) -5.33646): 37.7% | Percent viability ([1]; Log (M) -5.81358): 37.4% | Percent viability ([1]; Log (M) -6.2907): 42.7% | Percent viability ([1]; Log (M) -6.76782): 49.2% | Percent viability ([1]; Log (M) -7.24494): 26.9% | Percent viability ([1]; Log (M) -7.72207): 28.2% | Percent viability ([1]; Log (M) -8.19919): 56.1% | Percent viability ([1]; Log (M) -8.67631): 100.9% | Percent viability ([1]; Log (M) -9.15343): 107.4% | Percent viability ([1]; Log (M) -9.63055): 103.4% | Percent viability ([1]; Log (M) -10.1077): 99.7% | Percent viability ([2]; Log (M) -5.33646): 49.0% | Percent viability ([2]; Log (M) -5.81358): 56.7% | Percent viability ([2]; Log (M) -6.2907): 82.7% | Percent viability ([2]; Log (M) -6.76782): 93.1% | Percent viability ([2]; Log (M) -7.24494): 90.9% | Percent viability ([2]; Log (M) -7.72207): 100.8% | Percent viability ([2]; Log (M) -8.19919): 94.5% | Percent viability ([2]; Log (M) -8.67631): 106.6% | Percent viability ([2]; Log (M) -9.15343): 125.4% | Percent viability ([2]; Log (M) -9.63055): 116.5% | Percent viability ([2]; Log (M) -10.1077): 92.5% | Percent viability ([3]; Log (M) -5.33646): 21.7% | Percent viability ([3]; Log (M) -5.81358): 56.9% | Percent viability ([3]; Log (M) -6.2907): 70.9% | Percent viability ([3]; Log (M) -6.76782): 75.0% | Percent viability ([3]; Log (M) -7.24494): 93.3% | Percent viability ([3]; Log (M) -7.72207): 86.0% | Percent viability ([3]; Log (M) -8.19919): 89.1% | Percent viability ([3]; Log (M) -8.67631): 101.5% | Percent viability ([3]; Log (M) -9.15343): 108.7% | Percent viability ([3]; Log (M) -9.63055): 96.8% | Percent viability ([3]; Log (M) -10.1077): 98.0% | Percent viability ([4]; Log (M) -5.33646): 20.8% | Percent viability ([4]; Log (M) -5.81358): 47.8% | Percent viability ([4]; Log (M) -6.2907): 56.2% | Percent viability ([4]; Log (M) -6.76782): 47.9% | Percent viability ([4]; Log (M) -7.24494): 43.4% | Percent viability ([4]; Log (M) -7.72207): 52.1% | Percent viability ([4]; Log (M) -8.19919): 55.1% | Percent viability ([4]; Log (M) -8.67631): 62.3% | Percent viability ([4]; Log (M) -9.15343): 100.0% | Percent viability ([4]; Log (M) -9.63055): 104.9% | Percent viability ([4]; Log (M) -10.1077): 91.4% | VP-MCC viability (in words) [5]: consistently and potently reduced VP-MCC viability | Percent viability ([6]; Log (M) -5.33646): 42.9% | Percent viability ([6]; Log (M) -5.81358): 32.8% | Percent viability ([6]; Log (M) -6.2907): 39.2% | Percent viability ([6]; Log (M) -6.76782): 41.9% | Percent viability ([6]; Log (M) -7.24494): 24.7% | Percent viability ([6]; Log (M) -7.72207): 26.4% | Percent viability ([6]; Log (M) -8.19919): 38.2% | Percent viability ([6]; Log (M) -8.67631): 100.0% | Percent viability ([6]; Log (M) -9.15343): 100.0% | Percent viability ([6]; Log (M) -9.63055): 102.6% | Percent viability ([6]; Log (M) -10.1077): 100.0% | Percent viability ([7]; Log (M) -5.33646): 72.0% | Percent viability ([7]; Log (M) -5.81358): 84.0% | Percent viability ([7]; Log (M) -6.2907): 86.8% | Percent viability ([7]; Log (M) -6.76782): 90.3% | Percent viability ([7]; Log (M) -7.24494): 93.9% | Percent viability ([7]; Log (M) -7.72207): 97.6% | Percent viability ([7]; Log (M) -8.19919): 94.0% | Percent viability ([7]; Log (M) -8.67631): 99.1% | Percent viability ([7]; Log (M) -9.15343): 95.5% | Percent viability ([7]; Log (M) -9.63055): 91.7% | Percent viability ([7]; Log (M) -10.1077): 91.9%

SP-600125
Area under the dose-response curve (AUC) MKL-1 Replicate 1 [1]: 472.9 | Area under the dose-response curve (AUC) MKL-1 Replicate 2 [1]: 491.9 | Area under the dose-response curve (AUC) MKL-1 Replicate 3 [1]: 491.6 | Area under the dose-response curve (AUC) MCC13 Replicate 1 [2]: 457.8 | Area under the dose-response curve (AUC) MCC13 Replicate 2 [2]: 483.0 | Area under the dose-response curve (AUC) MCC13 Replicate 3 [2]: 492.5 | Area under the dose-response curve (AUC) UISO Replicate 1 [3]: 425.2 | Area under the dose-response curve (AUC) UISO Replicate 2 [3]: 449.0 | Area under the dose-response curve (AUC) UISO Replicate 3 [3]: 462.0 | Area under the dose-response curve (AUC) MKL-2 Replicate 1 [4]: 447.3 | Area under the dose-response curve (AUC) MKL-2 Replicate 2 [4]: 464.7 | Area under the dose-response curve (AUC) MKL-2 Replicate 3 [4]: 498.4 | Area under the dose-response curve (AUC) WAGA Replicate 1 [6]: 479.2 | Area under the dose-response curve (AUC) WAGA Replicate 2 [6]: 486.5 | Area under the dose-response curve (AUC) WAGA Replicate 3 [6]: 468.4 | Area under the dose-response curve (AUC) MCC26 Replicate 1 [7]: 435.5 | Area under the dose-response curve (AUC) MCC26 Replicate 2 [7]: 426.6 | Area under the dose-response curve (AUC) MCC26 Replicate 3 [7]: 458.4
